Source: patent US12528790B2, “Amide derivative having antiviral activity” (Shionogi & Co., Ltd., priority 2020, dated 2026)

Columns and labels:
RSV A2 strain = assay: In vitro CPE (CytoPathic Effect) inhibition effect evaluation test, RSV type A; format: cell-based; settings: human respiratory syncytial virus; inhibitory effect against RSV type A (RSV A2 strain), HEp-2 cells, CPE inhibition; read-out: EC50
Summary of the method: (§1)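 HEp-2 cells (2.4×10^5 cells/mL, 2% FBS E-MEM) were infected with RSV alongside 3-fold compound dilutions and incubated at 37 °C, 4 days for A2 and 5 days for B Wash/18537. Viable cells quantified by CellTiter-Glo 2.0 luminescence; EC50 by nonlinear regression as 50% CPE inhibition.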

[1] = test system: RSV B (Wash/18537 strain); assay: In vitro CPE (CytoPathic Effect) inhibition effect evaluation test, RSV type B; format: cell-based; settings: human respiratory syncytial virus, inhibitory effect against RSV type B, CPE inhibition; read-out: EC50
Summary of the method: as §1

Row | Compound | EC50 (RSV A2 strain) [nM] | EC50 [1] [nM]
1 | O=C(NC1(C(=O)O)C2CC3CC(C2)CC1C3)c1cnc(N2CC3(CCCCC3)c3cc(OC4CCC(N5CC(F)(F)C5)CC4)ccc32)nc1C(F)(F)F (centres unmarked) [Compound I-438] | < 10 | < 10
2 | CC(F)(F)c1nc(N2CC3(CCCCC3)c3cc(OC4CCN(CC(F)(F)F)CC4)ccc32)ncc1C(=O)NC1(C(=O)O)C2CC3CC(C2)CC1C3 (centres unmarked) [Compound I-440] | < 10 | 10 to 100
3 | CC(F)(F)c1nc(N2CC3(CCCCC3)c3cc(O[C@H]4CC[C@H](N5CC(F)(F)C5)CC4)ccc32)ncc1C(=O)NC1(C(=O)O)C2CC3CC(C2)CC1C3 (some centres unmarked) [Compound I-443] | < 10 | < 10
4 | O=C(NC1(C(=O)O)C2CC3CC(C2)CC1C3)c1cnc(N2CC3(CCCCC3)c3cc(C(=O)N4CCN(c5ncccn5)CC4)ccc32)nc1C(F)(F)F (centres unmarked) [Compound I-444] | < 10 | < 10
5 | COC1(C)CCC(Oc2ccc3c(-c4ncc(C(=O)NC5(C(=O)O)C6CC7CC(C6)CC5C7)c(C(F)(F)F)n4)cn(C4CCC(F)(F)CC4)c3c2)CC1 (centres unmarked) [Compound I-445] | < 10 | < 10
6 | O=C(NC1(C(=O)O)C2CC3CC(C2)CC1C3)c1cnc(-c2cn(-c3ccccn3)c3cc(OC4CCN(c5ncc(F)cn5)CC4)ccc23)nc1C(F)(F)F (centres unmarked) [Compound I-447] | < 10 | < 10
7 | O=C(NC1(C(=O)O)C2CC3CC(C2)CC1C3)c1cnc(-c2cn(C3CCC(F)(F)CC3)c3cc(OC4CCC(N5CC(F)(F)C5)C4)ccc23)nc1C(F)(F)F (centres unmarked) [Compound I-451] | < 10 | 10 to 100
8 | O=C(NC1(C(=O)O)C2CC3CC(C2)CC1C3)c1ccc(-c2cn(C3CCC(F)(F)CC3)c3cc(O[C@H]4CC[C@H](N5CC(F)(F)C5)CC4)ccc23)nc1C(F)(F)F (some centres unmarked) [Compound I-452] | < 10 | < 10
9 | CC(F)(F)c1nc(N2CC3(CCCCC3)c3cc(C(=O)N4CCN(c5ncccn5)CC4)ccc32)ncc1C(=O)NC1(C(=O)O)C2CC3CC(C2)CC1C3 (centres unmarked) [Compound I-453] | < 10 | < 10
10 | O=C(NC1(C(=O)O)C2CC3CC(C2)CC1C3)c1cnc(N2CC3(CCCCC3)c3cc(CN4CCN(c5ncccn5)CC4)ccc32)nc1C(F)(F)F (centres unmarked) [Compound I-463] | < 10 | 100 to 5000
11 | CC(F)(F)c1nc(N2CC3(CCCCC3)c3cc(CN4CCN(c5ncccn5)CC4)ccc32)ncc1C(=O)NC1(C(=O)O)C2CC3CC(C2)CC1C3 (centres unmarked) [Compound I-464] | < 10 | 100 to 5000
12 | CC(F)(F)c1nc(N2CC3(CCOCC3)c3cc(OC4CCN(CC(F)(F)F)CC4)ccc32)ncc1C(=O)NC1(C(=O)O)C2CC3CC(C2)CC1C3 (centres unmarked) [Compound I-465] | < 10 | < 10
13 | O=C(NC1(C(=O)O)C2CC3CC(C2)CC1C3)c1cnc(N2CC3(CCOCC3)c3cc(-n4ncc5c4CCN(CC(F)(F)F)C5)ccc32)nc1C(F)(F)F (centres unmarked) [Compound I-472] | < 10 | < 10
14 | O=C(NC1(C(=O)O)C2CC3CC(C2)CC1C3)c1cnc(N2CC3(CCCCC3)c3cc(OC4CC5(CCN(CC(F)(F)F)CC5)C4)ccc32)nc1C(F)(F)F (centres unmarked) [Compound I-473] | < 10 | 100 to 5000
15 | O=C(NC1(C(=O)O)C2CC3CC(C2)CC1C3)c1cnc(N2CC3(CCCC3)c3cc(OC4CCN(CC(F)(F)F)CC4)ccc32)nc1C(F)(F)F (centres unmarked) [Compound I-474] | < 10 | 10 to 100
16 | O=C(N[C@]1(C(=O)O)[C@@H]2CC3C[C@H]1C[C@@](F)(C3)C2)c1cnc(-c2cn(C3CCC(F)(F)CC3)c3cc(O[C@H]4CC[C@H](N5CC(F)(F)C5)CC4)ccc23)nc1C(F)(F)F [Compound I-479] | < 10 | < 10
17 | CC(F)(F)c1nc(-c2cn(C3CCC(F)(F)CC3)c3cc(O[C@H]4CC[C@H](N5CC(F)(F)C5)CC4)ccc23)ncc1C(=O)NC1(C(=O)O)C2CC3CC(C2)CC1C3 (some centres unmarked) [Compound I-481] | < 10 | < 10
18 | O=C(NC1(C(=O)O)C2CC3CC(C2)CC1C3)c1cnc(N2CC3(CCCCC3)c3cc(OC4CCN(CC(F)F)CC4)ccc32)nc1C(F)(F)F (centres unmarked) [Compound I-482] | < 10 | 10 to 100
19 | O=C(NCC(F)(F)F)c1ccc2c(c1)C1(CCOCC1)CN2c1ncc(C(=O)NC2(C(=O)O)C3CC4CC(C3)CC2C4)c(C(F)(F)F)n1 (centres unmarked) [Compound I-483] | < 10 | 100 to 5000
20 | O=C(NC1(C(=O)O)C2CC3CC(C2)CC1C3)c1cnc(N2CC3(CCCCC3)c3cc(OC4CCN(CC5(F)COC5)CC4)ccc32)nc1C(F)(F)F (centres unmarked) [Compound I-484] | < 10 | 10 to 100
21 | O=C(NC1(C(=O)O)C2CC3CC(C2)CC1C3)c1cnc(N2CC3(CCCCC3)c3cc(OC4CCN(C5CSC5)CC4)ccc32)nc1C(F)(F)F (centres unmarked) [Compound I-485] | < 10 | 10 to 100
22 | O=C(NC1(C(=O)O)C2CC3CC(C2)CC1C3)c1cnc(N2CC3(CCCC3)c3cc(OC4CCC5(CC4)COC5)ccc32)nc1C(F)(F)F (centres unmarked) [Compound I-488] | < 10 | < 10

Row | Compound | EC50 (RSV A2 strain) [nM] | EC50 [1] [nM]
23 | O=C(NC1(C(=O)O)C2CC3CC(C2)CC1C3)c1cnc(N2CC3(CCOCC3)c3cc(OCCC(F)(F)F)ncc32)nc1C(F)(F)F (centres unmarked) [Compound I-489] | < 10 | < 10
24 | O=C(NC1(C(=O)O)C2CC3CC(C2)CC1C3)c1cnc(N2CC3(CCOCC3)c3cc(C(=O)N4CC(C(F)(F)F)C4)ccc32)nc1C(F)(F)F (centres unmarked) [Compound I-490] | < 10 | < 10
25 | O=C(NC1(C(=O)O)C2CC3CC(C2)CC1C3)c1cnc(N2CC3(CCOCC3)c3cc(C(=O)N4CC(F)(F)C4)ccc32)nc1C(F)(F)F (centres unmarked) [Compound I-491] | < 10 | 10 to 100
26 | CC(=O)N1CC(N2CCC(Oc3ccc4c(c3)C3(CCCCC3)CN4c3ncc(C(=O)NC4(C(=O)O)C5CC6CC(C5)CC4C6)c(C(F)(F)F)n3)CC2)C1 (centres unmarked) [Compound I-492] | < 10 | 10 to 100
27 | O=C(NC1(C(=O)O)C2CC3CC(C2)CC1C3)c1cnc(N2CC3(CCC(F)(F)CC3)c3cc(OC4CCN(CC(F)(F)F)CC4)ccc32)nc1C(F)(F)F (centres unmarked) [Compound I-493] | < 10 | < 10
28 | O=C(NC1(C(=O)O)C2CC3CC(C2)CC1C3)c1cnc(N2CC3(CCCCC3)c3cc(OC4CN(c5ncc(F)cn5)C4)ccc32)nc1C(F)(F)F (centres unmarked) [Compound I-494] | < 10 | < 10
29 | O=C(NC1(C(=O)O)C2CC3CC(C2)CC1C3)c1cnc(N2CC3(CCCCC3)c3cc(OC4CN(CC(F)(F)F)C4)ccc32)nc1C(F)(F)F (centres unmarked) [Compound I-495] | < 10 | < 10
30 | CCC(CC)n1cc(-c2ncc(C(=O)NC3(C(=O)O)C4CC5CC(C4)CC3C5)c(C(F)(F)F)n2)c2ccc(O[C@H]3CC[C@H](N4CC(F)(F)C4)CC3)cc21 (some centres unmarked) [Compound I-496] | < 10 | < 10
31 | O=C(NC1(C(=O)O)C2CC3CC(C2)CC1C3)c1cnc(-c2cn(C3CC3)c3cc(O[C@H]4CC[C@H](N5CC(F)(F)C5)CC4)ccc23)nc1C(F)(F)F (some centres unmarked) [Compound I-497] | < 10 | < 10
32 | O=C(NC1(C(=O)O)C2CC3CC(C2)CC1C3)c1cnc(-c2cn(C3CCC4(CC3)COC4)c3cc(O[C@H]4CC[C@H](N5CC(F)(F)C5)CC4)ccc23)nc1C(F)(F)F (some centres unmarked) [Compound I-498] | < 10 | < 10
33 | O=C(NC1(C(=O)O)C2CC3CC(C2)CC1C3)c1cnc(-c2cn(C3CCOCC3)c3cc(O[C@H]4CC[C@H](N5CC(F)(F)C5)CC4)ccc23)nc1C(F)(F)F (some centres unmarked) [Compound I-499] | < 10 | < 10
34 | O=C(NC1(C(=O)O)C2CC3CC(C2)CC1C3)c1cnc(N2CC3(CCCCC3)c3cc(O[C@H]4CC[C@@H](N5CC(F)(F)C5)CC4)ccc32)nc1C(F)(F)F (some centres unmarked) [Compound I-500] | < 10 | < 10
35 | O=C(NC1(C(=O)O)C2CC3CC(C2)CC1C3)c1cnc(N2CC3(CCCCC3)c3cc(O[C@H]4CC[C@H](n5cncn5)CC4)ccc32)nc1C(F)(F)F (some centres unmarked) [Compound I-501] | < 10 | < 10
36 | O=C(NC1(C(=O)O)C2CC3CC(C2)CC1C3)c1cnc(N2CC3(CCCC3)c3cc(OC4CCN(C5CC(F)(F)C5)CC4)ccc32)nc1C(F)(F)F (centres unmarked) [Compound I-502] | < 10 | 10 to 100
37 | CC(F)(F)c1nc(N2CC3(CCOCC3)c3cc(OC4CCN(c5ncc(F)cn5)CC4)ncc32)ncc1C(=O)NC1(C(=O)O)C2CC3CC(C2)CC1C3 (centres unmarked) [Compound I-503] | < 10 | < 10
38 | O=C(NC1(C(=O)O)C2CC3CC(C2)CC1C3)c1cnc(N2CC3(CCCCC3)c3cc(C(=O)N4CCN(c5ncc(F)cn5)CC4)ccc32)nc1C(F)(F)F (centres unmarked) [Compound I-504] | < 10 | < 10
39 | O=C(NC1(C(=O)O)C2CC3CC(C2)CC1C3)c1cnc(N2CC3(CCCCC3)c3cc(C(=O)N4CCN(CC(F)(F)F)CC4)ccc32)nc1C(F)(F)F (centres unmarked) [Compound I-505] | < 10 | < 10
40 | CC(F)(F)c1nc(N2CC3(CCOCC3)c3cc(O[C@H]4CC[C@H](N5CC(F)(F)C5)CC4)ccc32)ncc1C(=O)NC1(C(=O)O)C2CC3CC(C2)CC1C3 (some centres unmarked) [Compound I-506] | < 10 | < 10
41 | COC[C@@H](C)n1cc(-c2ncc(C(=O)NC3(C(=O)O)C4CC5CC(C4)CC3C5)c(C(F)(F)F)n2)c2ccc(O[C@H]3CC[C@H](N4CC(F)(F)C4)CC3)cc21 (some centres unmarked) [Compound I-507] | < 10 | < 10
42 | COC[C@H](C)n1cc(-c2ncc(C(=O)NC3(C(=O)O)C4CC5CC(C4)CC3C5)c(C(F)(F)F)n2)c2ccc(O[C@H]3CC[C@H](N4CC(F)(F)C4)CC3)cc21 (some centres unmarked) [Compound I-508] | < 10 | < 10
43 | O=C(NC1(C(=O)O)C2CC3CC(C2)CC1C3)c1ccc(-c2cn(C3CCC(F)(F)CC3)c3cc(OC4CCN(CC(F)(F)F)CC4)ccc23)nc1C(F)(F)F (centres unmarked) [Compound I-511] | < 10 | 10 to 100
